Columns and labels:
5TGM1 cells [1] = assay: Cell viability assay (ViaLight Plus); type: cell-based, murine; conditions: Carf 10 nM, Gal3M 10 ug/ml
Protocol: Cell viability assay. 5TGM1 cells were treated for 48 hours with carfilzomib, Gal3M or the combination of these two agents, then cell viability was assessed by the ViaLight Plus Cell Proliferation and Cytotoxicity BioAssay Kit (Lonza) according to the directions of the manufacturer.

5TGM1 cells [2] = assay: Chemotaxis assay (Transwell); type: cell-based, murine
Protocol: Chemotaxis assay. 5TGM1 cells (4×10^5/well) were plated in 100 μL serum-free medium in the top chambers of 24-well Transwell™ inserts (Corning Costar, N.Y., USA) with 8-μm. Complete cell culture medium (600 μL) containing 10% FBS was added to the bottom chamber. Cells were treated for 4 hours with Gal3M (10 μg/ml), carfilzomib (10 nM) or carfilzomib plus Gal3M (same doses), and 5TGM1 cells in the lower chamber were fixed and counted.

5TGM1 cells [3] = assay: Invasion ability of 5TGM1 cells; type: cell-based, murine; conditions: Carf 10 nM, Gal3M 10 ug/ml
5TGM1 cells [4] = assay: 5TGM1 syngeneic mice model of MM, serum IgG2b and SP17 ELISA; type: in vivo, C57BL/KaLwRij mice
Protocol: (§1) Testing Gal3M and carfilzomib in 5TGM1 syngeneic mice model. 5TGM1 cells were washed once with PBS (Sigma-Aldrich) and counted. The suspension containing […] 5TGM1 cells was injected I.V. into 20 C57BL/KaLwRij mice, 5 non-injected mice were used as negative controls. Tumor engraftment was assessed by testing IgG2b in the sera once a week. After 14 days the injected mice were randomly divided into four groups (five mice/group). Control group #1 was injected with PBS-only, group #2 received a dose of Gal3M (100 μg/mouse), group #3 received a dose of carfilzomib (112 μg/mouse) and group #4 received a dose of carfilzomib (112 μg/mouse) plus Gal3M (100 ug/mouse). Treatment effect on tumor growth was assessed by testing IgG2b and SP17 levels in the sera. Anesthetized animals were euthanized after 28 days and a postmortem examination was conducted on the whole animals and dissected organs.
ELISA for Sp17 and IgG2b. The levels of SP17 and IgG2b in mice serum were measured by direct ELISA as follows. Flat-bottom 96-well polycarbonate plates were coated with 100 μL/well sera diluted 1:25 in carbonate coating buffer (0.1 M Na2CO3, 0.1 M NaHCO3, pH 9.5) at 4° C. overnight. Then, after blocking with PBS supplemented with 1% W/V BSA for 1 hour at RT, plates were incubated with mouse anti-mouse Sp17 or IgG2b primary antibodies (1:500 in PBS, 100 μL/well, Santa Cruz Biotechnology) for 1 hour at RT. Then, plates were washed thrice with PBS with 0.025% V/V Tween-20 (200 μL/well) and incubated at RT with anti-mouse HRP-labeled secondary antibodies (1:10,000 in PBS; Abcam, Cambridge, Mass., USA) for 1 hour. The plates were washed thrice with PBS containing 0.025% V/V Tween-20 (200 μL/well), the TMB colorimetric substrate (Thermo Fisher Scientific, Waltham, Mass., USA) was added, and after 5 minutes the absorbance was measured (0.1 s) at 450 nm on a Victor 2 multimodal microplate reader (PerkinElmer, Billerica, Mass., USA). All samples were run in triplicates.

kidney and heart = assay: Kidney and heart toxicity in 5TGM1 mice (hematoxylin/eosin, activated caspase-3 IHC); conditions: mouse, in vivo
Protocol: 5TGM1 cells were washed once with PBS (Sigma-Aldrich) and counted. […] Tumor engraftment was assessed by testing IgG2b in the sera once a week. After 14 days the injected mice were randomly divided into four groups (five mice/group). […] Treatment effect on tumor growth was assessed by testing IgG2b and SP17 levels in the sera. Anesthetized animals were euthanized after 28 days and a postmortem examination was conducted on the whole animals and dissected organs.
Immunohistochemistry analysis of markers of osteoclasts (anti-Cathepsin K antibody, Abcam), osteoblasts (anti-osteocalcin antibody, Abcam) and apoptosis (anti-activated caspase-3 antibody, Cell Signaling Technologies) were carried out in paraffin-embedded sections. Hearts and kidneys from treated and control mice were fixed in formalin, dehydrated in ethanol, embedded in paraffin, and then cut in 3.5 μm-thick sections. For bone sections, following formalin-fixation, decalcification with 10% EDTA (pH=8), and de-hydration in ethanol, femurs were included in paraffin, then cut in 5 μm-thick sections. […] Sections were rinsed twice in PBS+0.05% Tween-20, then endogenous peroxidase was blocked with 1% H2O2 in PBS for 15′. After rinsing three times with PBS+0.05% Tween-20 for 2′, slides were incubated with the secondary antibody (1:1000, Goat anti-Rabbit-HRP, Abcam) for 1 hour at RT. […]

[5] = tested on: Raw264.7 cells co-cultured with 5TGM1 cells; assay: 5TGM1-driven osteoclastogenesis in vitro (TRAP staining); type: cell-based, murine; conditions: co-culture with 5TGM1, 5 μM carfilzomib, 10 μM Gal3M, 7 days, vs control co-culture
Protocol: Osteoclast differentiation from RAW264.7 cells. For co-culture experiments Raw264.7 and 5TGM1 cells were seeded on a 6-well plate at a density of 1×10^4 cells/well (about 8×103 Raw264.7 and 2×103 […]) and cultured in presence/absence of carfilzomib, Gal3M or carfilzomib plus Gal3M. After 5-7 days cells were fixed on the culture plates with citrate-acetone solution and stained for TRAP (Sigma-Aldrich). Osteoclasts were identified and enumerated under light microscopy by the presence of ≧3 nuclei by using an Olympus microscope.

5TGM1 mice [6] = assay: Bone mass density analysis on x-ray images of 5TGM1 mice; type: in vivo; conditions: compared with tumor-bearing untreated mice
Protocol: as §1
Bone mass density analysis. X-ray images were taken at the euthanasia day using IVIS Lumina Series III Pre-clinical In Vivo Imaging System (Perkin Elmer, USA) and bone mass density analysis (BMD) were performed as previously described (McManus M M, 2011).

5TGM1 mice [7] = assay: IHC for osteocalcin and Cathepsin K on decalcified bones; type: in vivo
Protocol: Immunohistochemistry. Immunohistochemistry analysis of markers of osteoclasts (anti-Cathepsin K antibody, Abcam), osteoblasts (anti-osteocalcin antibody, Abcam) and apoptosis (anti-activated caspase-3 antibody, Cell Signaling Technologies) were carried out in paraffin-embedded sections. Hearts and kidneys from treated and control mice were fixed in formalin, dehydrated in ethanol, embedded in paraffin, and then cut in 3.5 μm-thick sections. For bone sections, following formalin-fixation, decalcification with 10% EDTA (pH=8), and de-hydration in ethanol, femurs were included in paraffin, then cut in 5 μm-thick sections. After deparaffinization in xylene and re-hydration (100%-95%-70%-50% ethanol scale), slides were placed 10′ in distilled water, then incubated 20′ at 98° C. in Sodium Citrate Buffer (10 mM Sodium Citrate, 0.05% Tween 20, pH 6.0). After blocking with PBS+5% V/V FBS (2 hours at room temperature), the anti Cathepsin K, steocalcin and active Caspase3 antibodies were added (diluted 1:400 in PBS+1% BSA) and allowed to incubate overnight at 4° C. Sections were rinsed twice in PBS+0.05% Tween-20, then endogenous peroxidase was blocked with 1% H2O2 in PBS for 15′. After rinsing three times with PBS+0.05% Tween-20 for 2′, slides were incubated with the secondary antibody (1:1000, Goat anti-Rabbit-HRP, Abcam) for 1 hour at RT. […]

LLC = assay: Murine lung cancer (LLC) study, measurement of tumor size; type: in vivo; conditions: LLC mice, treatment from 14 days after injection, Carfilzomib 112 ug and 224 ug
Protocol: Measurement of tumor size. 14 days after injection of LLC, the mice were treated with XM and Carfilzomib (112 ug and 224 ug) for two (2) consecutive days three (3) times weekly.

[8] = tested on: kidney, liver, lung, spleen, and heart; assay: Western Blot of apoptotic marker caspase-3 in organs of LLC mice; type: in vivo, mouse; conditions: after 36 days
Description: FIG. 14 is a Western Blot of the apoptopic marker […]-3 of cells in solid tumors with no treatment, XM alone, Carfilzomib alone, and Carfilzomib plus XM. After 36 days, the mice were sacrificed and organs collected for the Western Blot.

lung cancer (tumor) = assay: ELISA for AKAP-4 expression in tumor and lung tissue; type: in vivo, mice; conditions: tumor and lung tissue lysates
Description: The wells were coated with tumor and lung tissue lysates.

[9] = MM patients; cited from earlier work

In the case of `CC(C)C[C@H](NC(=O)[C@H](CCc1ccccc1)NC(=O)CN1CCOCC1)C(=O)N[C@@H](Cc1ccccc1)C(=O)N[C@@H](CC(C)C)C(=O)[C@@]1(C)CO1` [Carfilzomib], the “growth of 5TGM1 (in words)” value (5TGM1 cells [1]) is reported as “significantly inhibited”, the “chemotaxis of 5TGM1 (in words)” value (5TGM1 cells [2]; Carf 10 nM, Gal3M 10 ug/ml) is reported as “significantly inhibited” and the inhibition at 0.01 µM (5TGM1 cells [2]; Mus musculus, 5TGM1 cells, 4 hours, Gal3M 10 μg/ml, carfilzomib 10 nM, read-out: inhibition of the ability of 5TGM1 cells to migrate in response to chemotactic stimuli) is reported as 40%. The “invasion ability of 5TGM1 (in words)” value (5TGM1 cells [3]) was “significantly inhibited”, the “decrease in IgG2b levels” value (5TGM1 cells [4]; day 21, treated on day 14, compared to untreated MM bearing mice) was 14% and the “decrease in SP17 serum levels” value (5TGM1 cells [4]; day 28, compared to untreated mice) was 37%. The “decrease in IgG2b levels” value (5TGM1 cells [4]; day 28, treated on day 14, compared to untreated MM bearing mice) was 36%, the “histological analysis of kidney and heart: morphology and activated caspase-3” value (kidney and heart; C57BL/KaLwRij, 28 days) was “associated with changes in cellular architecture and caspase-3 activation” and the kidney toxicity (kidney and heart) was “kidney toxicity both at minimum and maximum dose”. For the same compound, the “decrease in formation of TRAP+/multinucleated Raw264.7 cells” value [5] was 55%, the “BMD increase ROI2” value (5TGM1 mice [6]; distal femur end) was 19% and the “BMD increase ROI1” value (5TGM1 mice [6]; proximal femur end) was 28%. The “BMD increase ROI3” value (5TGM1 mice [6]; tibia) was 12%, the “Cathepsin K-positive cells (osteoclasts marker)” value (5TGM1 mice [7]) was “decrease” and the “osteocalcin-positive cells (osteoblasts marker)” value (5TGM1 mice [7]) was “increase”. The “tumor growth (tumor size)” value (LLC) was “inhibited tumor growth”, the “apoptosis (caspase-3 Western Blot) in mouse organs” value [8] was “increased apoptosis” and the “effect on lung cancer (AKAP-4 ELISA)” value (lung cancer (tumor)) was “have an effect on lung cancer (tumor)”. For the same compound, the “treated patients discontinuing therapy because of renal and cardiac side effects” value [9] was “approximately 15%”.
